Tests used:
HUVECs [1] = test: Angiogenic activity assay on BME-coated wells, stressed HUVECs; format: cell-based, human
Method: (§1) Low passage HUVECs were grown under stressed (serum starved; 0.5% FBS) conditions for 16 h in endothelial basal medium (EBM) and then harvested and resuspended in complete medium containing 10% FBS.
(§2) Cells were seeded (5×10^4 cells per well) in wells coated with growth factor-reduced Cultrex basement membrane extract (BME; Trevigen Gaithersburg, MD, USA) and left untreated (NT) or treated with 10 ng/ml of GST, p24, p17 or each p17-derived peptide F1 to F8.
Data are the means±SD of three independent experiments with similar results.
Statistical analysis was performed by one-way ANOVA and the Bonferroni post-test was used to compare data (***P<0.001).

HUVECs [2] = test: Angiogenic activity assay under normal and stressed condition; format: cell-based, human; settings: 10 ng/ml
Method: Low passage HUVECs were grown under normal (10% FBS) or stressed (serum starved; 0.5% FBS) conditions for 16 h in endothelial basal medium (EBM) and then harvested and resuspended in complete medium containing 10% FBS. […]
An EPO-derived 11 amino acids-long peptide (EPO peptide—SEQ ID No. 10) and a F3-derived 16 amino acids-long peptide (F3S—SEQ ID No. 9) were synthetized and tested at 10 ng/ml for their angiogenic activity under the same procedure of Example 7.

[3] = test system: full-thickness excisional skin wounds; test: In vivo wound-healing assay in diabetic mice; set-up: species or system spontaneously diabetic (db/db) mice; settings: db/db mice, topical daily, 1.0 μg/50 μL days 0 to 7 and 10 μg/50 μL days 8 to 13; days 8 to 14 (p≤0.035)
Description: Patients with diabetes are prone to impaired wound healing, with foot ulceration being particularly prevalent. This delay in wound healing also extends to animal models of diabetes. The impact of the EPO peptide (DSRVLERYLLE, corresponding to SEQ ID No. 10) on wound healing was therefore investigated by in vivo experiments on spontaneously diabetic (db/db) mice (i.e., BKS.Cg-m Dock7^m+/+Lepr^db/J mice).
In this study, the healing of full-thickness excisional skin wounds on the flanks of diabetic mice in receipt of the EPO peptide was compared to that of wounds in receipt of negative control (Water for Injection) treatment. The overall wound closure (i.e. the reduction in open wound area) was determined over time by taking scaled wound images of each wound at each assessment point.
EPO Peptide (DFL24435) was solubilized at 200 μg/mL (10 μg per 50 μL) in sterile water for injection, aliquoted into 100 μL volumes, stored at −20° C., defrosted on the day of use and diluted as necessary.
The animals were divided in a control group, that was treated with water for injection, and a EPO peptide group, that was treated with the peptide. Treatment was carried out once a day on post-wounding days 0 to 13 and the animals were sacrificed on day 14. […]

HMVEC-Ls = test: Angiogenic activity assay on HMVEC-Ls; format: cell-based, human; settings: HMVEC-Ls (lung)
Method: (§3) Human aortic endothelial cells (HAECs) and Human lung microvascular endothelial cells (HMVEC-Ls) were purchased from Clonetics (San Diego, CA, USA) and cultured in EGM-2MV (Lonza) containing 10% (vol/vol) FBS.
as §1, §2
(§4) Similar results were obtained by using human ECs derived from different origin, such as aorta (HAECs), lung (HMVEC-Ls) and lymph node (LN-LECs) (FIGS. 3, 4 and 5, respectively).

endothelial cells = test: Involvement of autophagy-based pathway in angiogenic activity; format: cell-based
LN-LECs = test: Angiogenic activity assay on LN-LECs; format: cell-based, human; settings: LN-LECs (lymph node)
Method: Human primary lymph node-derived endothelial cells (LN-LECs) have been developed and characterized as described in Norder et al, FASEB J, 2012; 26:2835-2846.
LN-LECs were cultured in EGM (Lonza) containing 10% FBS and supplemented with VEGF-C (25 ng/ml) (Reliatech, Wolfenbuettel, Germany).
as §1, §2, §4

HUVECs [4] = test: Wound-healing assay (EC migration); format: cell-based, human; settings: 10 ng/ml; for effect on HUVEC migration: 12 h; for healing: after 12 h of culture
Method: The involvement of peptide F2 and F3 in promoting EC migration was evaluated by performing a wound healing assay.
HUVECs were plated on 24-well plates (10^5 cells per well) in complete medium containing 10% FBS. Confluent monolayers were nutrient starved for 16 h and then scratched using a 200 μI pipette tip. After being washed, cells were left untreated or treated with 10 ng/ml of GST, p24, p17, or each p17-derived peptide F1 to F8.

HUVECs [5] = test: Angiogenic activity assay with CXCR1 and CXCR2 inhibition; format: cell-based, human; settings: stressed HUVECs, peptide 10 ng/ml, preincubation 1 hour with 2.5 μg/ml mAb
Method: as §1
Cells were seeded (5×10^4 cells per well) in wells coated with growth factor-reduced Cultrex basement membrane extract (BME; Trevigen Gaithersburg, MD, USA) and left untreated (NT) or treated with 10 ng/ml of each p17-derived peptide F1 or F2, after preincubation for 1 hour at 37° C. with 2.5 μg/ml of a control isotype-matched mAb (Ctrl mAb), a neutralizing mAb to CXCR1 and/or a neutralizing mAb to CXCR2.

aortic rings = test: Rat aortic ring assay (ex vivo); format: cell-based, Sprague-Dawley rats; settings: 10 days
Method: Briefly, the dorsal aorta was excised from 6-wk-old Sprague-Dawley rats. Rings, 1-mm thick, were embedded in collagen gel and then incubated with serum-free EBM containing PBS, peptide F2 (10 ng/ml), peptide F3 (10 ng/ml), or FGF-2 (50 ng/ml) (Thermo Fisher Scientific, Rodano, Italy). The plates were incubated for 10 days and angiogenesis was quantified by counting the number of microvessels originating from aortic rings.

HAECs = test: Angiogenic activity assay on HAECs; format: cell-based, human; settings: HAECs (aorta)
Method: as §3, §1, §2, §4

[6] = He W et al. 2019; cited from earlier work
[7] = test system: chick chorioallantoic membrane (CAM); test: Chick chorioallantoic membrane (CAM) assay; format: in vivo, White Leghorn chicken; settings: 100 ng on gelatin sponge, day 12
Method: The vasculogenic activity of peptide F2 and F3 was further characterized by in vivo experiments by using the chick chorioallantoic membrane (CAM) assay.
Fertilized White Leghorn chicken eggs (30 per group) were incubated at 37° C. at constant humidity. On day 3, a square window was opened in the shell, and 2-3 ml of albumin was removed to allow detachment of the developing CAM. The window was sealed with a glass, and the eggs were returned to the incubator. On day 8, eggs were treated with 1 mm 3 sterilized gelatin sponges (Gelfoam; Upjohn, Kalamazoo, MI, USA) placed on top of the growing CAM, as described in Ribatti D et al, Nat Protoc, 2006; 1:85-91, and loaded with 1 μl of PBS (negative control), 1 μl of PBS containing 100 ng of peptide F2 or F3. CAMs were examined daily until day 12 and photographed in ovo with a stereomicroscope equipped with a camera and image analyzer system (Olympus, Hamburg, Germany). At day 12, the angiogenic response was evaluated by the image analyzer system and counted as the number of vessels converging toward the sponge.

CXCR1 = CXCR1 (Homo sapiens, UniProt P25024); settings: He W et al. 2019; cited from earlier work
CXCR2 = CXCR2 (Homo sapiens, UniProt P25025); settings: He W et al. 2019; cited from earlier work
B cell = settings: He W et al. 2019; cited from earlier work
[8] = HUVECs, as example 2, 10 ng of the peptide
[9] = normal (10% FBS) culture conditions
[10] = stressed (serum starved; 0.5% FBS) conditions
[11] = HUVECs stressed (serum starved; 0.5% FBS) 16 h, 10 ng/ml

Sequence of CXCR2 (P25025 whole entry): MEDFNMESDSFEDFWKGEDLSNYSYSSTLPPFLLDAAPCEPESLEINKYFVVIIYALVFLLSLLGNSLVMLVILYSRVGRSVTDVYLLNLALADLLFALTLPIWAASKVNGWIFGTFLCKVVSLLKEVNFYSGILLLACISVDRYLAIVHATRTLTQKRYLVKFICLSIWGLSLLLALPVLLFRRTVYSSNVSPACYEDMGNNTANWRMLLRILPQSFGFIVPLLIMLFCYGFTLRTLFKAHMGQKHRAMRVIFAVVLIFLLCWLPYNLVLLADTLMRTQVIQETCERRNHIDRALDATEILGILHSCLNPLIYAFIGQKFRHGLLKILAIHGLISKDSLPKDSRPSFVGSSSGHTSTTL
Sequence of CXCR1 (P25024 whole entry): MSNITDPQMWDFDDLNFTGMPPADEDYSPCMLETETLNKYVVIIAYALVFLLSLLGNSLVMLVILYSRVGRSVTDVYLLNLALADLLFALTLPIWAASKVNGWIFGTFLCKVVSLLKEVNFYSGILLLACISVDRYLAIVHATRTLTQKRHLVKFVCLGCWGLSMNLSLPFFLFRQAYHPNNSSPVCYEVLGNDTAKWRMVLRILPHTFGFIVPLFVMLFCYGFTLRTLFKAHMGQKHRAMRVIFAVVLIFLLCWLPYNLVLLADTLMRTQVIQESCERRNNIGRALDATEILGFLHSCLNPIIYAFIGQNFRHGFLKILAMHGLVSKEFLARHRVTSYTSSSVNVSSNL

## AANELDRF [SIVcpz-derived peptide]
HUVECs [1]; [8]
  angiogenic activity: able to significantly promote angiogenesis

## AANELDRFLLE [SIVcpz-derived peptide]
HUVECs [1]; [8]
  angiogenic activity: able to significantly promote angiogenesis

## ASRELERF (ASRELERFLLE)
HUVECs [1]; [8]
  angiogenic activity: able to significantly promote angiogenesis

## ASRELERFACNPELLE [peptide gor]
HUVECs [1]; [8]
  angiogenic activity: able to significantly promote angiogenesis

## ASRELERFACNPGLME [peptide cpz]
HUVECs [1]; [8]
  angiogenic activity: able to significantly promote angiogenesis

## ASRELERFAVNPGLLE [Peptide F3S, F3-derived 16 amino acids-long peptide]
HUVECs [2]; [9]
  angiogenic activity: potent angiogenic activity
HUVECs [2]; [10]
  angiogenic activity: potent angiogenic activity

## ASRELERFLLE
HUVECs [1]; [8]
  angiogenic activity: able to significantly promote angiogenesis

## DSRVLERYLLE [EPO peptide, EPO-derived 11 amino acids-long peptide]
HUVECs [2]; [9]
  angiogenic activity: potent angiogenic activity
HUVECs [2]; [10]
  angiogenic activity: potent angiogenic activity
[3]
  wound closure (reduction in open wound area) compared to vehicle: significantly increased closure

## EKIRLRPGGKKKYKLKHIVW [Peptide F2]
HMVEC-Ls
  angiogenic activity: potent angiogenic activity
Endothelial cells
  involvement of autophagy-based pathway in angiogenic activity: involves an autophagy-based pathway
LN-LECs
  angiogenic activity: potent angiogenic activity
HUVECs [1]; [11]
  angiogenic activity: endowed with angiogenic activity
HUVECs [4]
  effect on HUVEC migration: comparable to that exerted by p17
  healing: ~100%
HUVECs [5]
  effect of neutralizing mAb to CXCR1 and CXCR2 on peptide-induced angiogenesis: inhibitory
Aortic rings; 10 ng/ml
  number of microvessels originating from aortic rings: 55±5
HUVECs [2]; [9]
  angiogenic activity: promoting angiogenesis under stress condition only
HUVECs [2]; [10]
  angiogenic activity: potent angiogenic activity
HAECs
  angiogenic activity: potent angiogenic activity
[6]
  binding to heparin: capable to bind
[7]
  mean number of vessels converging toward the sponge: 27±4
CXCR1
  binding to CXCR1 receptor: capable to bind
CXCR2
  binding to CXCR2 receptor: capable to bind

## FGF-2: FGF-2 (Thermo Fisher Scientific), positive control in aortic ring assay [reference compound]
Aortic rings; 50 ng/ml
  number of microvessels originating from aortic rings: 84±6

## GARASVLSGGELDRWEKIRL [Peptide F1, p17-derived peptide, aminoacids 2 to 21 of p17]
B cell
  B cell growth promoting activity: endowed with cell growth promoting activity

## KHIVWASRELERFAVNPGLL [Peptide F3, p17-derived 20 amino acid peptide]
HMVEC-Ls
  angiogenic activity: potent angiogenic activity
Endothelial cells
  involvement of autophagy-based pathway in angiogenic activity: independent from autophagy
LN-LECs
  angiogenic activity: potent angiogenic activity
HUVECs [1]; [11]
  angiogenic activity: endowed with angiogenic activity
HUVECs [4]
  effect on HUVEC migration: comparable to that exerted by p17
  healing: ~100%
HUVECs [5]
  effect of neutralizing mAb to CXCR1 and CXCR2 on peptide-induced angiogenesis: did not impair
Aortic rings; 10 ng/ml
  number of microvessels originating from aortic rings: 46±8
HUVECs [2]; [9]
  angiogenic activity: promote angiogenesis
HUVECs [2]; [10]
  angiogenic activity: potent angiogenic activity
HAECs
  angiogenic activity: potent angiogenic activity
[7]
  mean number of vessels converging toward the sponge: 30±3

## glutathione S-transferase [GST, reference compound]
HUVECs [1]; [11]
  angiogenic activity: did not induce any pro-angiogenic activity
HUVECs [4]
  effect on HUVEC migration: did not exert any effect
